#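 A five-concentration, 48-hour dose response in 96-well plates underlies each endpoint, interpolated linearly between surrounding concentrations. Abbreviation: GI50, concentration required for 50% inhibition of growth. TGI denotes the concentration required for complete inhibition of growth.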
# Key:
# Assay in all cases: NCI anticancer screen, dose series, 48 h
# NCI-H522 lung = test system: NCI-H522 lung
# IGROV1 ovarian = test system: IGROV1 ovarian
# 786-0 renal = test system: 786-0 renal
# K-562 leukemia = test system: K-562 leukemia
# OVCAR-4 ovarian = test system: OVCAR-4 ovarian
# NCI-H23 lung = test system: NCI-H23 lung
# PC-3 prostate = test system: PC-3 prostate
# COLO 205 colon = test system: COLO 205 colon
# MCF7 breast = test system: MCF7 breast
# LOX IMVI melanoma = test system: LOX IMVI melanoma
# BT-549 breast = test system: BT-549 breast
# CAKI-1 renal = test system: CAKI-1 renal
# TK-10 renal = test system: TK-10 renal
# OVCAR-8 ovarian = test system: OVCAR-8 ovarian
# RPMI-8226 leukemia = test system: RPMI-8226 leukemia
# EKVX NSCLC = test system: EKVX NSCLC
# KM12 colon = test system: KM12 colon
# SNB-75 CNS = test system: SNB-75 CNS
# OVCAR-3 ovarian = test system: OVCAR-3 ovarian
# HOP-62 NSCLC = test system: HOP-62 NSCLC
# SN12C renal = test system: SN12C renal
# HL-60(TB) leukemia = test system: HL-60(TB) leukemia
# OVCAR-5 ovarian = test system: OVCAR-5 ovarian
# SK-MEL-5 melanoma = test system: SK-MEL-5 melanoma
# SR leukemia = test system: SR leukemia
# HCT-15 colon = test system: HCT-15 colon
# HT29 colon = test system: HT29 colon
# A549 NSCLC = test system: A549 NSCLC
# SK-OV-3 ovarian = test system: SK-OV-3 ovarian
# T-47D breast = test system: T-47D breast
# CCRF-CEM leukemia = test system: CCRF-CEM leukemia
# MDA-MB-435 = test system: MDA-MB-435
# SK-MEL-28 melanoma = test system: SK-MEL-28 melanoma
# SF-295 CNS = test system: SF-295 CNS
# NCI/ADR-RES ovarian = test system: NCI/ADR-RES ovarian
# SW-620 colon = test system: SW-620 colon
# ACHN renal = test system: ACHN renal
# DU-145 prostate = test system: DU-145 prostate
# NCI-H226 lung = test system: NCI-H226 lung
# SK-MEL-2 melanoma = test system: SK-MEL-2 melanoma
# SF-539 CNS = test system: SF-539 CNS
# HCT-116 colon = test system: HCT-116 colon
# UO-31 renal = test system: UO-31 renal
# HS 578T breast = test system: HS 578T breast
# MDA-MB-231 breast = test system: MDA-MB-231 breast
# U251 CNS = test system: U251 CNS
# HCC-2998 colon = test system: HCC-2998 colon
# MALME-3M melanoma = test system: MALME-3M melanoma
# SF-268 CNS = test system: SF-268 CNS
# M14 melanoma = test system: M14 melanoma
# UACC-257 melanoma = test system: UACC-257 melanoma
# NCI-H460 lung = test system: NCI-H460 lung
# SNB-19 CNS = test system: SNB-19 CNS
# MOLT-4 leukemia = test system: MOLT-4 leukemia
# UACC-62 melanoma = test system: UACC-62 melanoma
# A498 renal = test system: A498 renal
smiles,measurement,setting,value
CCCCN1C=CCN(CCCC)C1,GI50,NCI-H522 lung,52.5 µM
same,TGI,NCI-H522 lung,> 100 µM
same,GI50,IGROV1 ovarian,66.4 µM
same,TGI,IGROV1 ovarian,> 100 µM
same,GI50,786-0 renal,> 100 µM
same,TGI,786-0 renal,> 100 µM
same,GI50,K-562 leukemia,32 µM
same,TGI,K-562 leukemia,> 100 µM
same,GI50,OVCAR-4 ovarian,58.8 µM
same,TGI,OVCAR-4 ovarian,> 100 µM
same,GI50,NCI-H23 lung,63.8 µM
same,TGI,NCI-H23 lung,> 100 µM
same,GI50,PC-3 prostate,37.7 µM
same,TGI,PC-3 prostate,> 100 µM
same,GI50,COLO 205 colon,28.9 µM
same,TGI,COLO 205 colon,> 100 µM
same,GI50,MCF7 breast,57 µM
same,TGI,MCF7 breast,> 100 µM
same,GI50,LOX IMVI melanoma,68.5 µM
same,TGI,LOX IMVI melanoma,> 100 µM
same,GI50,BT-549 breast,> 100 µM
same,TGI,BT-549 breast,> 100 µM
same,GI50,CAKI-1 renal,> 100 µM
same,TGI,CAKI-1 renal,> 100 µM
same,GI50,TK-10 renal,> 100 µM
same,TGI,TK-10 renal,> 100 µM
same,GI50,OVCAR-8 ovarian,61.7 µM
same,TGI,OVCAR-8 ovarian,> 100 µM
same,GI50,RPMI-8226 leukemia,23.6 µM
same,TGI,RPMI-8226 leukemia,93.6 µM
same,GI50,EKVX NSCLC,18.5 µM
same,TGI,EKVX NSCLC,> 100 µM
same,GI50,KM12 colon,35.8 µM
same,TGI,KM12 colon,> 100 µM
same,GI50,SNB-75 CNS,> 100 µM
same,TGI,SNB-75 CNS,> 100 µM
same,GI50,OVCAR-3 ovarian,23.8 µM
same,TGI,OVCAR-3 ovarian,57.2 µM
same,GI50,HOP-62 NSCLC,> 100 µM
same,TGI,HOP-62 NSCLC,> 100 µM
same,GI50,SN12C renal,71.7 µM
same,TGI,SN12C renal,> 100 µM
same,GI50,HL-60(TB) leukemia,21.2 µM
same,TGI,HL-60(TB) leukemia,75.4 µM
same,GI50,OVCAR-5 ovarian,> 100 µM
same,TGI,OVCAR-5 ovarian,> 100 µM
same,GI50,SK-MEL-5 melanoma,30.1 µM
same,TGI,SK-MEL-5 melanoma,> 100 µM
same,GI50,SR leukemia,> 100 µM
same,TGI,SR leukemia,> 100 µM
same,GI50,HCT-15 colon,> 100 µM
same,TGI,HCT-15 colon,> 100 µM
same,GI50,HT29 colon,61.4 µM
same,TGI,HT29 colon,> 100 µM
same,GI50,A549 NSCLC,> 100 µM
same,TGI,A549 NSCLC,> 100 µM
same,GI50,SK-OV-3 ovarian,> 100 µM
same,TGI,SK-OV-3 ovarian,> 100 µM
same,GI50,T-47D breast,27.3 µM
same,TGI,T-47D breast,> 100 µM
same,GI50,CCRF-CEM leukemia,> 100 µM
same,TGI,CCRF-CEM leukemia,> 100 µM
same,GI50,MDA-MB-435,33.8 µM
same,TGI,MDA-MB-435,> 100 µM
same,GI50,SK-MEL-28 melanoma,86.9 µM
same,TGI,SK-MEL-28 melanoma,> 100 µM
same,GI50,SF-295 CNS,49.8 µM
same,TGI,SF-295 CNS,> 100 µM
same,GI50,NCI/ADR-RES ovarian,> 100 µM
same,TGI,NCI/ADR-RES ovarian,> 100 µM
same,GI50,SW-620 colon,70.1 µM
same,TGI,SW-620 colon,> 100 µM
same,GI50,ACHN renal,89.7 µM
same,TGI,ACHN renal,> 100 µM
same,GI50,DU-145 prostate,> 100 µM
same,TGI,DU-145 prostate,> 100 µM
same,GI50,NCI-H226 lung,> 100 µM
same,TGI,NCI-H226 lung,> 100 µM
same,GI50,SK-MEL-2 melanoma,46.3 µM
same,TGI,SK-MEL-2 melanoma,> 100 µM
same,GI50,SF-539 CNS,> 100 µM
same,TGI,SF-539 CNS,> 100 µM
same,GI50,HCT-116 colon,39 µM
same,TGI,HCT-116 colon,> 100 µM
same,GI50,UO-31 renal,> 100 µM
same,TGI,UO-31 renal,> 100 µM
same,GI50,HS 578T breast,63.4 µM
same,TGI,HS 578T breast,> 100 µM
same,GI50,MDA-MB-231 breast,> 100 µM
same,TGI,MDA-MB-231 breast,> 100 µM
same,GI50,U251 CNS,32.2 µM
same,TGI,U251 CNS,> 100 µM
same,GI50,HCC-2998 colon,34 µM
same,TGI,HCC-2998 colon,> 100 µM
same,GI50,MALME-3M melanoma,21.2 µM
same,TGI,MALME-3M melanoma,57.3 µM
same,GI50,SF-268 CNS,53 µM
same,TGI,SF-268 CNS,> 100 µM
same,GI50,M14 melanoma,85.1 µM
same,TGI,M14 melanoma,> 100 µM
same,GI50,UACC-257 melanoma,22.8 µM
same,TGI,UACC-257 melanoma,80.7 µM
same,GI50,NCI-H460 lung,47.5 µM
same,TGI,NCI-H460 lung,> 100 µM
same,GI50,SNB-19 CNS,46.4 µM
same,TGI,SNB-19 CNS,> 100 µM
same,GI50,MOLT-4 leukemia,60.7 µM
same,TGI,MOLT-4 leukemia,> 100 µM
same,GI50,UACC-62 melanoma,48.1 µM
same,TGI,UACC-62 melanoma,> 100 µM
same,GI50,A498 renal,> 100 µM
same,TGI,A498 renal,> 100 µM

# From PubChem BioAssay (NCI)
